In patent publication US20220002671A1, “T Cells with Improved Mitochondrial Function” (Abraham J and Phyllis Katz Cord Blood Foundation, priority 2018, published 2022):

Tests used:
[1] = test system: mitochondrial transfer from hBM-MSC to iTreg; test: Mitochondrial transfer from BM-MSC into iTregs, MitoTracker green by flow cytometry; format: cell-based, human; conditions: Cytochalasin B 350 nM treated BM-MSC, 24 h, n=6; Mock 2208±122.1
[2] = test system: mitochondrial transfer from BM-MSC to UCB iTregs; test: Mitochondrial transfer from BM-MSC into UCB iTregs, MitoTracker Red FM by confocal microscopy; format: cell-based, human
[3] = test system: BACH2, SENP3, Foxp3 in iTreg; test: iTreg Foxp3, BACH2 and SENP3 protein expression; format: cell-based, human; conditions: after cytochalasin B treatment
[4] = test system: mitochondrial transfer from BM-MSC to UCB iTregs; test: Mitochondrial transfer from mt-GFP lentivirus transduced MSC into iTregs, flow cytometry; format: cell-based, human
TNT formation = conditions: Sáenz-de-Santa-María et al., Oncotarget, 2017; cited from earlier work

Cytochalasin B
mitochondrial transfer from hBM-MSC to iTreg (MitoTracker MFI) [1]: 923.8±89 MFI | mitochondrial transfer from MSC to UCB iTregs (MitoTracker+ iTregs, confocal) ([2]; 350 nM, 24 h): significantly blocks mitochondrial transfer | iTreg BACH2 protein expression [3]: dramatically decreased | iTreg SENP3 protein expression [3]: no significant effect

CC(=O)N[C@@H](CS)C(=O)O [N-acetylcysteine]
mitochondria uptake by Treg (confocal) ([2]; 200 uM added to BM-MSC+iTreg culture, 24-36 h): minimally reduced

C=C(C)[C@H]1Cc2c(ccc3c2O[C@@H]2COc4cc(OC)c(OC)cc4[C@@H]2C3=O)O1 [rotenone]
transfer of mitochondria into iTregs from rotenone treated MSC ([4]; rotenone treated mt-GFP MSC platform, 72 hrs): do not transfer

C=C1[C@@H](C)[C@H]2[C@H](Cc3ccccc3)NC(=O)[C@]23[C@H](OC(C)=O)/C=C/[C@@](C)(O)C(=O)[C@@H](C)C/C=C/[C@H]3[C@@H]1O [Cytocalasin D, Cytochalasin D]
TNT formation (TNT formation): significant reduction

Nc1ncnc2c1ncn2[C@@H]1O[C@H](COP(=O)(O)CP(=O)(O)O)[C@@H](O)[C@H]1O [Adenosine 5′-(α,(β-methylene)diphosphate, Adenosine 5′-(α,β-methylene)diphosphate]
mitochondrial transfer from BM-MSC to UCB iTregs (mt-GFP+ iTregs) [4]: significantly blocks mitochondrial transfer
